Measurements: patent US20060122153A1, “Antineoplastic ether lipid compounds with modifications at the sn-2 carbon” (priority 2003, published 2006)

What was measured:
Type in all cases: cell-based, human
[1] = test system: T-47D; experiment: NCI growth inhibition screen, breast panel; set-up: key to Performance as compared to ET-18-O—CH3: = means equivalent activity; + means that it appears to be significantly better (i.e., by ˜2x); < means it appears to be less active than ET18OCH3 (˜2x); a combination like =/+ or </+ means that activity is dependent upon the isomer; a combination like =/+ or </+ means that activity is dependent upon the isomer; conditions: for Performance as compared to ET-18-O—CH3: T-47D, Breast, from GI50s; for GI50: breast cancer cell line T-47D, NCI screen
Method: (§1) Candidates deemed suitable for in vivo testing were then synthesized in large scale quantities and some of this material was sent to the NCI's Developmental Therapeutics Program for a battery of growth inhibitory studies against various human tumor cell lines (60 cell lines, 9 different panels). The remainder of the material was used to assess in vivo efficacy using murine tumor models. Additionally, studies were conducted on the lead candidates to discern mechanism of action with particular emphasis on these agents apoptotic ability as measured by caspase 3 activity. The details (materials and methods) for these various assays are described further in the following discussion.
(§2) Ten compounds were also sent to NCI's Drug Discovery Program for screening against numerous human tumor cell lines (9 panels total: renal ovarian, colon, CNS, non-small cell lung, leukemia, breast, melanoma, and prostate). The data are shown in FIGS. 2a-i which also include data regarding D- and L-ET-18-OCH3 (listed as L-EL and D-EL in the figures). Upon examining the data, one is struck by how 1R and 1a′S standout in comparison to the other compounds, especially for the renal, ovarian, colon, and CNS panels.

[2] = test system: BT-549; experiment: NCI growth inhibition screen, breast panel; set-up: key to Performance as compared to ET-18-O—CH3: = means equivalent activity; + means that it appears to be significantly better (i.e., by ˜2x); < means it appears to be less active than ET18OCH3 (˜2x); a combination like =/+ or </+ means that activity is dependent upon the isomer; a combination like =/+ or </+ means that activity is dependent upon the isomer; conditions: for Performance as compared to ET-18-O—CH3: BT-549, Breast, from GI50s; for activity compared to ET-18-OCH3 (in words): BT-549 cell line, NCI screen
Method: as §1, §2

[3] = test system: MCF-7; experiment: NCI growth inhibition screen, breast panel; set-up: key to Performance as compared to ET-18-O—CH3: = means equivalent activity; + means that it appears to be significantly better (i.e., by ˜2x); < means it appears to be less active than ET18OCH3 (˜2x); a combination like =/+ or </+ means that activity is dependent upon the isomer; a combination like =/+ or </+ means that activity is dependent upon the isomer; conditions: for Performance as compared to ET-18-O—CH3: MCF-7, Breast, from GI50s; for activity compared to ET-18-OCH3 (in words): MCF-7 cell line, NCI screen
Method: as §1, §2

[4] = test system: HCT-116; experiment: NCI growth inhibition screen, colon panel; set-up: key: = means equivalent activity; + means that it appears to be significantly better (i.e., by ˜2x); < means it appears to be less active than ET18OCH3 (˜2x); a combination like =/+ or </+ means that activity is dependent upon the isomer; a combination like =/+ or </+ means that activity is dependent upon the isomer; conditions: HCT-116, Colon; from GI50s
Method: as §1, §2

[5] = test system: HT29; experiment: NCI growth inhibition screen, colon panel; set-up: key: = means equivalent activity; + means that it appears to be significantly better (i.e., by ˜2x); < means it appears to be less active than ET18OCH3 (˜2x); a combination like =/+ or </+ means that activity is dependent upon the isomer; a combination like =/+ or </+ means that activity is dependent upon the isomer; conditions: from GI50s
Method: as §1, §2

[6] = test system: KM12; experiment: NCI growth inhibition screen, colon panel; set-up: key: = means equivalent activity; + means that it appears to be significantly better (i.e., by ˜2x); < means it appears to be less active than ET18OCH3 (˜2x); a combination like =/+ or </+ means that activity is dependent upon the isomer; a combination like =/+ or </+ means that activity is dependent upon the isomer; conditions: from GI50s
Method: as §1, §2

[7] = test system: HOP-62; experiment: NCI growth inhibition screen, non-small cell lung panel; conditions: for Performance as compared to ET-18-O—CH3: HOP-62, NS cell lung, from GI50s; for activity compared to other compounds (in words): HOP-62 cells, NCI screen
Method: as §1, §2

[8] = test system: A498; experiment: NCI growth inhibition screen, renal panel; set-up: key: = means equivalent activity; + means that it appears to be significantly better (i.e., by ˜2x); < means it appears to be less active than ET18OCH3 (˜2x); a combination like =/+ or </+ means that activity is dependent upon the isomer; a combination like =/+ or </+ means that activity is dependent upon the isomer; conditions: from GI50s
Method: as §1, §2

[9] = test system: 786-0; experiment: NCI growth inhibition screen, renal panel; set-up: key: = means equivalent activity; + means that it appears to be significantly better (i.e., by ˜2x); < means it appears to be less active than ET18OCH3 (˜2x); a combination like =/+ or </+ means that activity is dependent upon the isomer; a combination like =/+ or </+ means that activity is dependent upon the isomer; conditions: 786-0, Renal; from GI50s
Method: as §1, §2

[10] = test system: SN12C; experiment: NCI growth inhibition screen, renal panel; set-up: key: = means equivalent activity; + means that it appears to be significantly better (i.e., by ˜2x); < means it appears to be less active than ET18OCH3 (˜2x); a combination like =/+ or </+ means that activity is dependent upon the isomer; a combination like =/+ or </+ means that activity is dependent upon the isomer; conditions: from GI50s
Method: as §1, §2

[11] = test system: RXF 393; experiment: NCI growth inhibition screen, renal panel; set-up: key: = means equivalent activity; + means that it appears to be significantly better (i.e., by ˜2x); < means it appears to be less active than ET18OCH3 (˜2x); a combination like =/+ or </+ means that activity is dependent upon the isomer; a combination like =/+ or </+ means that activity is dependent upon the isomer; conditions: RXF 393, Renal; from GI50s
Method: as §1, §2

[12] = test system: TK-10; experiment: NCI growth inhibition screen, renal panel; set-up: key: = means equivalent activity; + means that it appears to be significantly better (i.e., by ˜2x); < means it appears to be less active than ET18OCH3 (˜2x); a combination like =/+ or </+ means that activity is dependent upon the isomer; a combination like =/+ or </+ means that activity is dependent upon the isomer; conditions: TK-10, Renal; from GI50s
Method: as §1, §2

[13] = test system: CAK-1; experiment: NCI growth inhibition screen, renal panel; set-up: key: = means equivalent activity; + means that it appears to be significantly better (i.e., by ˜2x); < means it appears to be less active than ET18OCH3 (˜2x); a combination like =/+ or </+ means that activity is dependent upon the isomer; a combination like =/+ or </+ means that activity is dependent upon the isomer; conditions: CAK-1, Renal; from GI50s
Method: as §1, §2

With `CCCCCCCCCCCCCCCCCCOC[C@@H](COP(=O)([O-])OCC[N+](C)(C)C)OS(C)(=O)=O` [1a′S] the “Performance as compared to ET-18-O—CH3” value [1] was “<”, the GI50 [1] was at least 15 µM and the “Performance as compared to ET-18-O—CH3” value [2] was 0. For the same compound, the “activity compared to ET-18-OCH3 (in words)” value [2] was “more active than ET-18-OCH3”, the “Performance as compared to ET-18-O—CH3” value [3] was 128 and the “activity compared to ET-18-OCH3 (in words)” value [3] was “more active than ET-18-OCH3”. The “Performance as compared to ET-18-O—CH3” value [4] was 256, the “Performance as compared to ET-18-O—CH3” value [5] was 0 and the “Performance as compared to ET-18-O—CH3” value [6] was 0. The “Performance as compared to ET-18-O—CH3” value [7] was “+/=”, the “activity compared to other compounds (in words)” value [7] was “better than a few of the other compounds” and the “Performance as compared to ET-18-O—CH3” value [8] was 0. For the same compound, the “Performance as compared to ET-18-O—CH3” value [9] was 0, the “Performance as compared to ET-18-O—CH3” value [10] was 0 and the “Performance as compared to ET-18-O—CH3” value [11] was 32. The “Performance as compared to ET-18-O—CH3” value [12] was 0 and the “Performance as compared to ET-18-O—CH3” value [13] was 0.

In the case of `CCCCCCCCCCCCCCCCCCOCC(COP(=O)([O-])OCC[N+](C)(C)C)OS(C)(=O)=O` (stereo not shown) [Compound 1aR], the “Performance as compared to ET-18-O—CH3” value [1] was “+”, the GI50 [1] was under 2.5 µM and the “Performance as compared to ET-18-O—CH3” value [2] was “+”. For the same compound, the “activity compared to ET-18-OCH3 (in words)” value [2] was “more active than ET-18-OCH3”, the “Performance as compared to ET-18-O—CH3” value [3] was “+” and the “activity compared to ET-18-OCH3 (in words)” value [3] was “more active than ET-18-OCH3”. The “Performance as compared to ET-18-O—CH3” value [4] was “+”, the “Performance as compared to ET-18-O—CH3” value [5] was “=” and the “Performance as compared to ET-18-O—CH3” value [6] was “=”. The “Performance as compared to ET-18-O—CH3” value [7] was “+/=”, the “activity compared to other compounds (in words)” value [7] was “better than a few of the other compounds” and the “Performance as compared to ET-18-O—CH3” value [8] was “=”. The “Performance as compared to ET-18-O—CH3” value [9] was “=”, the “Performance as compared to ET-18-O—CH3” value [10] was “=” and the “Performance as compared to ET-18-O—CH3” value [11] was “=”. The “Performance as compared to ET-18-O—CH3” value [12] was “=” and the “Performance as compared to ET-18-O—CH3” value [13] was “=”.
